Experimental data taken from patent US20260217735A1, “HETEROCYCLES AND USES THEREOF” (Kumquat Biosciences Inc., priority 2023, published 2026).

Columns and labels:
KRAS G12D = target: T1, KRAS G12D (Homo sapiens, UniProt P01116, G12D); test: HTRF assay, KRAS G12D interaction with SOS1; type: biochemical; conditions: bins <500 nM / 500 nM to 1000 nM, read-out: Inhibition of KRAS G12D (IC50)
T1 construct: made in house; host or cells: E. coli, e.g. BL21 (DE3)

KRAS WT = target: T2, KRAS WT (Homo sapiens, UniProt P01116); test: HTRF assay, wildtype KRAS interaction with SOS1; type: biochemical; conditions: bins <500 nM / 500 nM to 1000 nM, read-out: Inhibition of KRAS WT (IC50)
T2 construct: made in house; host or cells: E. coli, e.g. BL21 (DE3)
T2 sequence (P01116 1-188 isoform P01116-2): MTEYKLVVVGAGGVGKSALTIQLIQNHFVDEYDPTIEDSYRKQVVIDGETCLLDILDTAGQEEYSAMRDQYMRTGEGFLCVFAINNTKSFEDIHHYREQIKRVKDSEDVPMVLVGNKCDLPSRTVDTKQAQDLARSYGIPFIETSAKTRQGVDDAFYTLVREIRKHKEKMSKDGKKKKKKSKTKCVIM

KRAS G12V = target: T3, KRAS G12V (Homo sapiens, UniProt P01116, G12V); test: HTRF assay, KRAS G12V interaction with SOS1; type: biochemical; conditions: bins <500 nM / 500 nM to 1000 nM, read-out: Inhibition of KRAS G12V (IC50)
T3 construct: made in house; host or cells: E. coli, e.g. BL21 (DE3)
T3 sequence (P01116 1-188 isoform P01116-2 G12V): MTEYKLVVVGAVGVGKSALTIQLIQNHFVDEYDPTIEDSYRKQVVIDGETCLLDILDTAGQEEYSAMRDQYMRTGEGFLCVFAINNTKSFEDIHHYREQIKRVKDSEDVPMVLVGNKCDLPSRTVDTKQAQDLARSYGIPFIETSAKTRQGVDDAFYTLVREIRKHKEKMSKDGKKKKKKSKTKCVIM

KRAS G12S = target: T4, KRAS G12S (Homo sapiens, UniProt P01116, G12S); test: HTRF assay, KRAS G12S interaction with SOS1; type: biochemical; conditions: bins <500 nM / 500 nM to 1000 nM, read-out: Inhibition of KRAS G12S (IC50)
T4 construct: made in house; host or cells: E. coli, e.g. BL21 (DE3)
T4 sequence (P01116 1-188 isoform P01116-2 G12S): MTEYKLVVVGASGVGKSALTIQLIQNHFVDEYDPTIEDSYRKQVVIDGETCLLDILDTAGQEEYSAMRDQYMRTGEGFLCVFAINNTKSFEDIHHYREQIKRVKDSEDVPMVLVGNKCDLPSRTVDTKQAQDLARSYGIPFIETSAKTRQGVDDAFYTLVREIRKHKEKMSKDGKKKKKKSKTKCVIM

MiaPaca2 cells = test: Ras cellular assay, growth of cells with K-Ras G12C mutation; type: cell-based; conditions: Homo sapiens, MIA PaCa-2; cell proliferation assay; bins ≤500 nM / >500 nM; read-out: Inhibition of MiaPaca2 Cells (IC50)
In short: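 MIA PaCa-2 cells (K-Ras G12C, about 125-150 cells/well) grown in 0.25% soft agar over a 0.6% agar base, compound added on day 2 at 0.3% final DMSO. Growth read on day 10 by Cell Titer 96 AQueous absorbance (490 nm, reference 660 nm) against time-zero wells; IC50 from four-parameter fit.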

T1 sequence (P01116 1-188 isoform P01116-2 G12D): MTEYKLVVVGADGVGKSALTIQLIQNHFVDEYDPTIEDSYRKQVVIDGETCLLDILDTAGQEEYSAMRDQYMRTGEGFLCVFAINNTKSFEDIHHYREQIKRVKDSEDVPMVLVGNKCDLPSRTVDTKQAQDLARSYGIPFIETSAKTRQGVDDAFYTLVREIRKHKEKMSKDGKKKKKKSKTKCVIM

| Structure (SMILES) | IC50 (KRAS G12D) [nM] | IC50 (KRAS WT) [nM] | IC50 (KRAS G12V) [nM] | IC50 (KRAS G12S) [nM] | IC50 (MiaPaca2 cells) [nM] |
| --- | --- | --- | --- | --- | --- |
| C[C@@H]1[C@H](N(C)c2nc(OC[C@@]34CCCN3C[C@H](F)C4)nc3c(F)c(-c4ccc(F)c5sc(N)c(C#N)c45)c(Cl)cc23)CCN1C(=O)n1ccnc1Cl [Compound 178, 2-amino-4-(6-chloro-4-(((2R,3R)-1-(2-chloro-1H-imidazole-1-carbonyl)-2-methylpyrrolidin-3-yl)(methyl)amino)-8-fluoro-2-(((2R,7aS)-2-fluorotetrahydro-1H-pyrrolizin-7a(5H)-yl)methoxy)quinazolin-7-yl)-7-fluorobenzo[b]thiophene-3-carbonitrile] | < 500 | < 500 | < 500 | < 500 | ≤ 500 |
| CN(c1nc(OC[C@@]23CCCN2C[C@H](F)C3)nc2c(F)c(-c3ccc(F)c4sc(N)c(C#N)c34)c(Cl)cc12)[C@H]1CCN(C(=O)n2cncn2)C1 [Compound 179, 4-(4-(((S)-1-(1H-1,2,4-triazole-1-carbonyl)pyrrolidin-3-yl)(methyl)amino)-6-chloro-8-fluoro-2-(((2R,7aS)-2-fluorotetrahydro-1H-pyrrolizin-7a(5H)-yl)methoxy)quinazolin-7-yl)-2-amino-7-fluorobenzo[b]thiophene-3-carbonitrile] | < 500 | < 500 | < 500 | < 500 | ≤ 500 |
| Cc1ncn(C(=O)N2CC[C@@H](N(C)c3nc(OC[C@@]45CCCN4C[C@H](F)C5)nc4c(F)c(-c5ccc(F)c6sc(N)c(C#N)c56)c(Cl)cc34)[C@H]2C)c1C [Compound 180, 2-amino-4-(6-chloro-4-(((2R,3R)-1-(4,5-dimethyl-1H-imidazole-1-carbonyl)-2-methylpyrrolidin-3-yl)(methyl)amino)-8-fluoro-2-(((2R,7aS)-2-fluorotetrahydro-1H-pyrrolizin-7a(5H)-yl)methoxy)quinazolin-7-yl)-7-fluorobenzo[b]thiophene-3-carbonitrile] | < 500 | < 500 | < 500 | < 500 | ≤ 500 |
| CN(c1nc(OC[C@@]23CCCN2C[C@H](F)C3)nc2c(F)c(-c3ccc(F)c4sc(N)c(C#N)c34)c(Cl)cc12)[C@@H]1CCN(C(=O)n2cncn2)C1 [Compound 181, 4-(4-(((R)-1-(1H-1,2,4-triazole-1-carbonyl)pyrrolidin-3-yl)(methyl)amino)-6-chloro-8-fluoro-2-(((2R,7aS)-2-fluorotetrahydro-1H-pyrrolizin-7a(5H)-yl)methoxy)quinazolin-7-yl)-2-amino-7-fluorobenzo[b]thiophene-3-carbonitrile] | < 500 | < 500 | < 500 | < 500 | ≤ 500 |
| CCN(c1nc(OC[C@@]23CCCN2[C@H](COc2ccc(C(F)(F)F)nn2)CC3)nc2c(F)c(-c3ccc(F)c4sc(N)c(C#N)c34)c(Cl)cc12)[C@@H]1CCN(C(=O)n2cc(C)nc2C)[C@@H]1C [Compound 182, 2-amino-4-(6-chloro-4-(((2R,3R)-1-(2,4-dimethyl-1H-imidazole-1-carbonyl)-2-methylpyrrolidin-3-yl)(ethyl)amino)-8-fluoro-2-(((3S,7aS)-3-(((6-(trifluoromethyl)pyridazin-3-yl)oxy)methyl)tetrahydro-1H-pyrrolizin-7a(5H)-yl)methoxy)quinazolin-7-yl)-7-fluorobenzo[b]thiophene-3-carbonitrile] | < 500 | < 500 | < 500 | < 500 | ≤ 500 |
| C[C@@H]1[C@H](N(C)c2nc(OC[C@@]34CCCN3C[C@H](F)C4)nc3c(F)c(-c4ccc(F)c5sc(N)c(C#N)c45)c(Cl)cc23)CCN1C(=O)n1cnc(CC#N)c1 [Compound 183, 2-amino-4-(6-chloro-4-(((2R,3R)-1-(4-(cyanomethyl)-1H-imidazole-1-carbonyl)-2-methylpyrrolidin-3-yl)(methyl)amino)-8-fluoro-2-(((2R,7aS)-2-fluorotetrahydro-1H-pyrrolizin-7a(5H)-yl)methoxy)quinazolin-7-yl)-7-fluorobenzo[b]thiophene-3-carbonitrile] | < 500 | < 500 | < 500 | < 500 | ≤ 500 |
| CCN(c1nc(OC[C@@]23CCCN2C[C@H](F)C3)nc2c(F)c(-c3ccc(F)c4sc(N)c(C#N)c34)c(I)cc12)[C@@H]1CCN(C(=O)n2cc(C)nc2C)[C@@H]1C [Compound 184, 2-amino-4-(4-(((2R,3R)-1-(2,4-dimethyl-1H-imidazole-1-carbonyl)-2-methylpyrrolidin-3-yl)(ethyl)amino)-8-fluoro-2-(((2R,7aS)-2-fluorotetrahydro-1H-pyrrolizin-7a(5H)-yl)methoxy)-6-iodoquinazolin-7-yl)-7-fluorobenzo[b]thiophene-3-carbonitrile] | < 500 | < 500 | < 500 | < 500 | ≤ 500 |
| Cc1c(F)c(N)cc(-c2ncc3c(N(C)[C@@H]4CCN(C(=O)n5cnc(F)n5)[C@@H]4C)nc(OC[C@@]45CCCN4C[C@H](F)C5)nc3c2F)c1C(F)(F)F [Compound 185, ((2R,3R)-3-((7-(5-amino-4-fluoro-3-methyl-2-(trifluoromethyl)phenyl)-8-fluoro-2-(((2R,7aS)-2-fluorotetrahydro-1H-pyrrolizin-7a(5H)-yl)methoxy)pyrido[4,3-d]pyrimidin-4-yl)(methyl)amino)-2-methylpyrrolidin-1-yl)(3-fluoro-1H-1,2,4-triazol-1-yl)methanone] | < 500 | < 500 | < 500 | < 500 | ≤ 500 |
| CCN(c1nc(OC[C@@]23CCCN2C[C@H](F)C3)nc2c(F)c(-c3ccc(F)c4sc(N)c(C#N)c34)c(Cl)cc12)[C@@H]1CCN(C(=O)n2ccnc2Cl)[C@@H]1C [Compound 186, 2-amino-4-(6-chloro-4-(((2R,3R)-1-(2-chloro-1H-imidazole-1-carbonyl)-2-methylpyrrolidin-3-yl)(ethyl)amino)-8-fluoro-2-(((2R,7aS)-2-fluorotetrahydro-1H-pyrrolizin-7a(5H)-yl)methoxy)quinazolin-7-yl)-7-fluorobenzo[b]thiophene-3-carbonitrile] | < 500 | < 500 | < 500 | < 500 | ≤ 500 |
| CC1C(N(C)c2nc(OC[C@@]34CCCN3C[C@H](F)C4)nc3c(F)c(-c4ccc(F)c5sc(N)c(C#N)c45)c(Cl)cc23)CCCN1C(=O)n1ccnc1 (stereo partly drawn) [Compound 187, 4-(4-((1-(1H-imidazole-1-carbonyl)-2-methylpiperidin-3-yl)(methyl)amino)-6-chloro-8-fluoro-2-(((2R,7aS)-2-fluorotetrahydro-1H-pyrrolizin-7a(5H)-yl)methoxy)quinazolin-7-yl)-2-amino-7-fluorobenzo[b]thiophene-3-carbonitrile] | < 500 | < 500 | < 500 | < 500 | ≤ 500 |
